The values below come from patent publication US6528517B1, “Synthesis of quinobenzoxazine analogues with topoisomerase II and quadruplex interactions for use as antineoplastic agents” (Board of Regents, The University of Texas System, priority 1998, dated 2003).

Structures are written as SMILES.

The test system of one experiment is B16 melanoma. Nature of the experiment: Cancer cell growth inhibition assay (MTT). The following applies: Mus musculus, B16. The format is cell-based, murine. On the procedure:
(§1) Exponentially growing cells in 0.1 ml medium were seeded on Day 0 in 96-well microtiter plates. On Day 1, 0.1-ml aliquots of medium containing graded concentrations test agent were added in duplicate to the cell plates. After incubation at 37° C. in a humidified incubator, the plates were centrifuged briefly (1-2 min at 1000 rpm), and 100 μl of the growth medium was removed. Cell cultures were incubated with 50 μl of 3-(4,5-dimethylthiazyl-2-yl)-2,5-diphenyltetrazolium bromide MTT, 1 mg/ml in Dubecco's PBS for 4 h at 37° C. The resulting purple formazan precipitate was solubilized with 200 μl of 0.4 N HCl in isopropyl alcohol. Absorbance was quantitated using a Bio-Rad Model 3550 microplate reader at a test wavelength of 570 nm and a reference wavelength of 630 nm. Absorbance values were transferred to a 486 personal computer, and the IC50 values were determined using the computer program EZ-ED50 (Chen et al., 1993).

The target of a further experiment is T1, topo II-DNA complex (Drosophila melanogaster, UniProt P15348).
T1 construct: purchased Amersham
T1 sequence (P15348 1-1447): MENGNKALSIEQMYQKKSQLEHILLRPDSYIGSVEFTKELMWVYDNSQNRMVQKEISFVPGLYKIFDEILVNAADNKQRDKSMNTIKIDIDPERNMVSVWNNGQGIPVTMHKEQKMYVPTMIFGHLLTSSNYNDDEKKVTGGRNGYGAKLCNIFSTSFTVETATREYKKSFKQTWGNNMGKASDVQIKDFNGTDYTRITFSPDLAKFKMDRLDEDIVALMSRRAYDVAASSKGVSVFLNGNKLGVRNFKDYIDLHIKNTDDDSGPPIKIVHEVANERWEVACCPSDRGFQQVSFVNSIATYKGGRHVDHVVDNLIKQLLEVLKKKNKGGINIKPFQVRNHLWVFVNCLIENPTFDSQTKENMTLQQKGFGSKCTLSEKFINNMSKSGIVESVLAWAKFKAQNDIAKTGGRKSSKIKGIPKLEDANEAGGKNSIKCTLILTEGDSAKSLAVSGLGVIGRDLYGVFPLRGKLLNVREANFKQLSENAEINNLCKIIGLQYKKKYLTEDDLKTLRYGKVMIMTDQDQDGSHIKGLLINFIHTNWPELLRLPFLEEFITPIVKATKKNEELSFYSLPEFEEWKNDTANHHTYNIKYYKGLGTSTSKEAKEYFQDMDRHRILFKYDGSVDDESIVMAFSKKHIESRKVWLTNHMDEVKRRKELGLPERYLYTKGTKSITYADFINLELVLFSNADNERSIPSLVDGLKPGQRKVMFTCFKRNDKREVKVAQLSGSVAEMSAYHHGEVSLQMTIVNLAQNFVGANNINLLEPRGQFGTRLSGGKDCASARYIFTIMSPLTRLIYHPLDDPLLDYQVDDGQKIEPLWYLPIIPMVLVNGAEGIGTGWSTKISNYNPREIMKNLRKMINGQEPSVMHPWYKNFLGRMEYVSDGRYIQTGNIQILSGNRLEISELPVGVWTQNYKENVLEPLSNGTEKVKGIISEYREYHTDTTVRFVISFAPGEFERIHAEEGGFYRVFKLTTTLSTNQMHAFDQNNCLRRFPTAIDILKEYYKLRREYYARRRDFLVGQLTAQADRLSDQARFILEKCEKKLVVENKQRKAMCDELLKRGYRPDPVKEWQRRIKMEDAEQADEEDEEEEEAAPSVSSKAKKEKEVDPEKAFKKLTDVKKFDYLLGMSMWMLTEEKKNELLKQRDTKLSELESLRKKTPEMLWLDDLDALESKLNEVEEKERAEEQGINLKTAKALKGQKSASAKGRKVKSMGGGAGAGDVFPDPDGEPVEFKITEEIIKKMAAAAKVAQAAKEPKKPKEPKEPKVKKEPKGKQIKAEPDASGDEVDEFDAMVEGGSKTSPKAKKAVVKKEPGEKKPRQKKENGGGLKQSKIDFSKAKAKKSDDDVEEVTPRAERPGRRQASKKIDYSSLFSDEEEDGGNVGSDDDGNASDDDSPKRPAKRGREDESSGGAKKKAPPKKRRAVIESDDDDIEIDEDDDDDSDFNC
The experiment can be described thus: Psorospermin competition study (DNA strand breakage assay). The format is biochemical. On the procedure:
5′^32P-labeled DNA was incubated with Drosophila topo II in the same buffer as the one in the topo II cleavage reaction in the presence of various amounts of either A-62176, Norfloxacin, or both. The incubation reactions took place at 30° C. for 10 min before 10 μM (final concentration) of psorospermin was added to the mixtures. The reactions were continued for an additional 5 min and then terminated by adding 5 μg of calf thymus DNA, followed by heating at 95° C. for 15 min. In the presence of piperidine, this procedure induces strand breakage at the drug modification sites (Hansen et al., 1996). The samples were subjected to phenol/chloroform extraction followed by ethanol precipitation.
In the presence of topo II, the reactivity of psorospermin is enhanced more than 40-fold with the guanine at the +4′ position at site B in FIG. 7 (Kwok et al., 1998a and 1998b). A DNA strand breakage assay was used to locate the position of alkylation of DNA by the epoxide of psorospermin upon intercalation to the base pairs between the +1 and +2 positions at site B within the topo II-DNA complex (Kwok et al., 1998a). Psorospermin has subsequently been used to probe the binding sites for m-AMSA (Kwok et al., 1998a). In the present study, this same assay was performed to determine the binding site of A-62176 on DNA in the presence of topo II.

A further experiment relates to Raji lymphoma. Nature of the experiment: Cancer cell growth inhibition assay (MTT). The settings on record: Homo sapiens, Raji. The experiment is classed as cell-based, human. The method, then:
as §1

A further experiment relates to MDA-231 breast. The experiment can be described thus: Cancer cell growth inhibition assay (MTT). The format is cell-based, human. The following applies: Homo sapiens, MDA-MB-231. The method, then: as §1
The test system of another experiment is HT-29 colon. Nature of the experiment: Cancer cell growth inhibition assay (MTT). The experiment is classed as cell-based, human. The following applies: Homo sapiens, HT-29. The method, then:
as §1

The test system of a further experiment is H226 non-small-cell lung. The experiment can be described thus: Cancer cell growth inhibition assay (MTT). The format is cell-based, human. The following applies: Homo sapiens, NCI-H226. On the procedure: as §1
Another experiment deals with DU-145 prostate. Nature of the experiment: Cancer cell growth inhibition assay (MTT). The format is cell-based, human. The settings on record: Homo sapiens, DU-145. On the procedure:
as §1

The term IC50 denotes the point on the concentration scale where inhibition reaches its midpoint. Regarding `N[C@H]1CCN(c2c(F)cc3c(=O)c(C(=O)O)cn4c3c2Oc2ccccc2-4)C1` [Compound A-62176, 1-(3-aminopyrrolidin-1-yl)-2-fluoro-4-oxo-4H-quino[2,3,4-i,j][1,4]benzoxazine-5-carboxylic acid, reference compound], the IC50 with B16 melanoma came to 170 ± 10 nM; in the experiment with Raji lymphoma, 50 ± 6 nM; with MDA-231 breast it was 160 ± 20 nM; in the experiment on HT-29 colon, 160 ± 10 nM; in the experiment with H226 non-small-cell lung, 90 ± 3 nM; in the experiment with DU-145 prostate it was 160 ± 30 nM. The “psorospermin alkylation at site B (competition)” value on topo II-DNA complex (0.5-10 μM drug, psorospermin, topo II present) was “decreased”. Besides, on topo II-DNA complex (after subtracting the enhancement by Norfloxacin alone), the “inhibition of psorospermin alkylation, in combination with Norfloxacin” value is given as “additive effect”.
